B1: Dkk1: inhibitor of Wnt signaling (protein, UniProt O94907 32-266, looked up)
Dickkopf-related protein 1: TLNSVLNSNAIKNLPPPLGGAAGHPGSAVSAAPGILYPGGNKYQTIDNYQPYPCAEDEECGTDEYCASPTRGGDAGVQICLACRKRRKRCMRHAMCCPGNYCKNGICVSSDQNHFRGEIEETITESFGNDHSTLDGYSRRTTLSSKMYHTKGQEGSVCLRSSDCASGLCCARHFWSKICKPVLKEGQVCTKHRRKGSHGLEIFQRCYCGEGLSCRIQKDHHQASNSSRLHTCQRH
B2: noggin: inhibitor of BMP signaling (protein, UniProt Q13253 28-232, looked up)
Noggin: QHYLHIRPAPSDNLPLVDLIEHPDPIFDPKEKDLNETLLRSLLGGHYDPGFMATSPPEDRPGGGGGAAGGAEDLAELDQLLRQRPSGAMPSEIKGLEFSEGLAQGKKQRLSKKLRRKLQMWLWSQTFCPVLYAWNDLGSRFWPRYVKVGSCFSKRSCSVPEGMVCKPSKSVHLTVLRWRCQRRGGQRCGWIPIQYPIISECKCSC

System: hESC
Assay: qPCR of DE vs. mesoderm emergence from primitive streak under signaling perturbations
Assay type: cell-based, human
Conditions: for mesoderm formation from PS: inhibiting endogenous Wnt on days 2-3; for downregulation of MESP1: neutralizing endogenous BMP on days 2-3, PS to DE, 2 hESC lines
Procedure: RNA was harvested from adherent cells grown in individual wells of a 12-well plate by the addition of 350 μL of RLT Buffer for several minutes. RNA could be indefinitely frozen at −80° C. or could be directly extracted. RNA extraction was conducted with the RNeasy Micro Kit (Qiagen) generally as per the manufacturer's recommendations with an intermediate 1 hour on-column DNase digestion to eliminate residual genomic DNA, and RNA was finally eluted from the column in 30 μL H20. After assessment of total RNA concentration, generally 100-500 ng of total RNA was used for reverse transcription (Superscript Reverse Transcriptase, Invitrogen) as per the manufacturer's instructions. Finally, cDNA was diluted 1:30 in H2O and was used for qPCR in 384-well high-throughput format. For each individual qPCR reaction per′ well (10 μL), 5 μL of 2×SYBR Green Master Mix (Applied Biosystems) was used and combined with 0.4 μL of combined forward and reverse primer mix (at 10 μM of forward+reverse primers in the combined primer mix). qPCR was conducted for 40 cycles at Tm=60° C., and a dissociation curve was generated at the end of the reaction to ensure only one product was specifically amplified per primer pair. qPCR analysis was conducted by the ddCt method: for each cDNA sample, the expression of experimental genes was internally normalized to the expression of a human housekeeping gene (Pbgd) for that same cDNA sample, and afterwards, expression of experimental genes could be determined between different cDNA samples. For all differentiated populations, expression of experimental genes was compared to undifferentiated hESCs plated for the same experimental set to ensure that any perceived increase or decrease of gene expression was significant relative to the ab initio expression of that gene in undifferentiated hESCs. Thus, for all qPCR data both in matrices […] and histograms (FIG. 39-65) all gene expression is normalized such that the level of gene expression (e.g., for SOX17) in hESCs=1. For each experiment, at least two distinct wells per, condition were harvested, and for each well, 2 or 3 technical replicates were performed for each gene whose expression was analyzed by qPCR.
To deduce the developmental signaling logic underlying cell-fate bifurcations, signaling-perturbation matrices (FIG. 1-23) were generated to visually represent qPCR data of developmental gene expression (rows) in response to various signaling-perturbations (columns). Signaling-perturbation matrices were generated using GenePattern's HeatMapViewer module (http://genepattern.broadinstitute.org), using as input data matrices of signaling-perturbation qPCR responses that were normalized to levels of developmental gene expression in undifferentiated hESC as described above. In HeatMapViewer, gene expression values are linearly transformed into colors (as indicated by the color legend below each matrix) in which no color represents low gene expression, stronger color represents higher gene expression and the strongest shade of color is equivalent to the highest level of the gene that was expressed in all signaling-perturbations tested in that matrix.

Row | Molecule | mesoderm formation from PS | downregulation of MESP1 [fold]
1 | O=c1[nH]c(-c2ccc(C(F)(F)F)cc2)nc2c1CSCC2 [XAV939, 3,5,7,8-Tetrahydro-2-[4-(trifluoromethyl)phenyl]-4H-thiopyrano[4,3-d]pyrimidin-4-one] | blocked mesoderm formation | 
2 | Cc1ccc2nc(NC(=O)CSc3nc4c(c(=O)n3-c3ccccc3)SCC4)sc2c1 [IWP2, N-(6-Methyl-2-benzothiazolyl)-2-[(3,4,6,7-tetrahydro-4-oxo-3-phenylthieno[3,2-d]pyrimidin-2-yl)thio]-acetamide] | blocked mesoderm formation | 
3 | Cl.c1ccc2c(-c3cnn4cc(-c5ccc(N6CCNCC6)cc5)cnc34)ccnc2c1 [DM3189/LDN-193189, 4-(6-(4-(piperazin-1-yl)phenyl)pyrazolo[1,5-a]pyrimidin-3-yl)quinoline hydrochloride] |  | ~3000
4 | B1 | blocked mesoderm formation | 
5 | B2 |  | ~3000

Reference: patent publication US20150329821A1, “METHODS OF DIFFERENTIATING STEM CELLS INTO ONE OR MORE CELL LINEAGES” (AGENCY FOR SCIENCE, TECHNOLOGY AND RESEARCH, priority 2012, published 2015)
